According to PMC6249549, “Bioactive metabolites from the leaves of Withania adpressa” (Pharmaceutical Biology, 2018):
Entries after “also recorded” stand apart in the source; their conditions may differ.

Key:
[1] = test system: MM-CSCs (multiple myeloma cancer stem cells); assay: Antiproliferative activity, MTT assay; format: cell-based, Human; conditions: 72 h; for IC50: Homo sapiens, mean ± SD of three measurements
Method: (§1) Human multiple myeloma cancer stem cells (MM-CSCs) derived from the bone marrow of a MM patient, were obtained from Celprogen (Torrance, CA). MM-CSCs were used between passages 4 and 12 for experiments. The tumour plasma cells RPMI 8226 were obtained from LGC standards (Middlesex, United Kingdom). RPMI 8226 cells were used between passages 10 and 25 for experiments. The two cell lines were cultured at 37 °C and 5% CO2 atmosphere in RPMI 1640 culture medium supplemented with 10% foetal bovine serum (Biowest), 100 IU/mL penicillin and 250 μg/mL streptomycin. MTT and XTT assays were used to evaluate the antiproliferative activity of the pure compounds in MM-CSCs and RPMI 8226 cells, respectively (Issa and Cuendet [2017]). MM-CSCs were seeded in 96 well plates at a density of 5,000 cells per well and allowed to adhere for 24 h, whereas RPMI 8226 cells were plated at a density of 15,000 cells per well and treated immediately. MM-CSCs and RPMI 8226 cells were treated with increasing concentrations (0–20 µM) of compounds for 72 h. Twenty microlitres of MTT solution (5 mg/mL) or 50 μL XTT solution (1 mg/mL) were added in each well and incubated for 2 h (MTT assay) or 4 h (XTT assay). The media and MTT solution were aspirated and the cells containing formazan were solubilized in 100 µL DMSO. Absorbance was measured at 590 nm (MTT assay) or 450 nm (XTT assay). The percentage of cell viability was calculated as the absorbance of each well was divided by that of the vehicle control wells (0.5% DMSO in culture medium) and multiplied by 100. IC50 values were calculated using GraphPad Prism. Each compound was tested in triplicate and three independent experiments were performed using bortezomib as positive control.

[2] = test system: RPMI 8226 cells; assay: Antiproliferative activity, XTT assay; format: cell-based; conditions: for Antiproliferative activity against RPMI 8226 (in words): 72 h; for IC50: Homo sapiens, RPMI-8226, 72 h, mean ± SD of three measurements
Method: as §1

[3] = test system: NF-κB; assay: NF-κB inhibition assay, TNF-α stimulated HEK293/NF-κB-luc luciferase reporter cells; format: cell-based; conditions: TNF-α (20 ng/mL) induced, mean ± SD of three independent measurements
Method: NF-κB inhibitory activity was assessed using a HEK293/NF-κB-luc cell line (Panomics, Fremont, CA) as previously described (Ndongo et al. [2017]). Briefly, cells were cultured at 37 °C and 5% CO2 atmosphere in high glucose Dulbecco's modified Eagle's medium (ThermoFisher Scientific) with 100 IU/mL penicillin, 100 μg/mL streptomycin, 100 μg/mL hygromycin B (ThermoFisher Scientific) and 10% foetal bovine serum (Biowest, Nuaillé, France). The day before the assay, cells were treated for 1 h with 2.5 μM of Cell Tracker Green CMFDA (ThermoFisher Scientific), a fluorescent dye used to quantify cell viability, in FBS-free medium. Then, 10^4 cells/well were seeded in 96-well plates and incubated overnight. After that, cells were treated with either the vehicle control (0.5% DMSO in culture medium) or the samples and stimulated for 5 h with 20 ng/mL of TNF-α (Sigma-Aldrich, Saint Louis, MO). Finally, cells were lysed with reporter lysis buffer (Promega, Madison, WI) and fluorescence signals were read on a Cytation 3 multimode plate reader (Biotek, Winooski, VT). Luciferase assay reagent (Promega) was then added to each well using the auto-injector and the luminescence signals were read. The fluorescence signal was used to normalize the luminescence signal for each well to limit the influence of cell toxicity in luminescence signal intensity. Relative NF-κB activity was quantified by comparing the normalized luminescence signal of vehicle treated nonstimulated cells with the one of vehicle treated stimulated cells. All pure compounds were first screened at 20 μM. Compounds able to inhibit more than 50% of TNF-α induced NF-κB activity at this concentration were considered as active and were selected for calculation of their IC50. Nonlinear regression (with sigmoidal dose response) was used to calculate the IC50 values using GraphPad Prism. Each compound was tested in duplicate and three independent experiments were performed using parthenolide as positive control.

[4] = DPPH radical scavenging assay; conditions: pure compound
Method: The DPPH radical scavenging activity was carried out as described previously (Şahin et al. [2004]) with slight modifications. Samples (1–200 µg/mL) were added to a 60-μM methanol solution of DPPH. The absorbance of the solution was measured at 517 nm after a 30-min incubation period at room temperature in the dark.

[5] = NO radical scavenging assay; conditions: pure compound

## CC1=C(CO)C(=O)O[C@@H]([C@@H](C)[C@H]2CC[C@H]3[C@@H]4C[C@H]5O[C@]56[C@@H](O)C=CC(=O)[C@]6(C)[C@H]4CC[C@]23C)C1 [Compound 2, withaferin A]
[1]
  Antiproliferative activity against MM-CSCs (in words): low µM antiproliferative activity
  IC50: 330 ± 20 nM
[2]
  Antiproliferative activity against RPMI 8226 (in words): low µM antiproliferative activity
  IC50: 170 ± 30 nM
[3]; Homo sapiens, HEK293, 5 h
  IC50: 47 nM
[3]; 5 h
  IC50: 50 ± 10 nM

## C[C@@H]1O[C@@H](OC[C@H]2O[C@@H](Oc3c(-c4ccc(O)cc4)oc4cc(O)cc(O)c4c3=O)[C@H](O)[C@@H](O)[C@@H]2O)[C@H](O)[C@H](O)[C@H]1O [Compound 4, nicotiflorin]
[1]
  IC50: > 20000 nM
[4]
  IC50: 35300 nM
[5]
  IC50: 41300 nM
[2]
  IC50: 7100 ± 100 nM
[3]; Homo sapiens, HEK293, 5 h
  IC50: > 20000 nM

## CC1=C(C)C(=O)OC(C(C)(O)C2(O)CCC3(O)C4CC=C5CC(OC6OC(CO)C(O)C(O)C6O)CC(=O)C5(C)C4CCC32C)C1 (stereo not shown) [Compound 3, coagulin L]
[1]
  IC50: > 20000 nM
[2]
  IC50: 3600 ± 600 nM
[3]; Homo sapiens, HEK293, 5 h
  IC50: > 20000 nM

## CC1=C(C)C(=O)O[C@@H]([C@](C)(O)[C@]2(O)CC[C@@]3(O)[C@@H]4CC=C5CC=CC(=O)[C@]5(C)[C@H]4CC[C@]23C)C1 [Compound 1, withanolide F]
[1]
  Antiproliferative activity against MM-CSCs (in words): low µM antiproliferative activity; also recorded: showed activity
  IC50: 5300 ± 900 nM
[2]
  Antiproliferative activity against RPMI 8226 (in words): low µM antiproliferative activity; also recorded: showed activity
  IC50: 100 ± 10 nM
[3]; Homo sapiens, HEK293, 5 h
  IC50: 1200 ± 200 nM

## CC(C)C[C@H](NC(=O)[C@H](Cc1ccccc1)NC(=O)c1cnccn1)B(O)O [Bortezomib, bortezomib, reference compound]
[1]
  IC50: 9.1 ± 1.4 nM
[2]
  IC50: 3.3 ± 0.8 nM

## C=C1C(=O)O[C@H]2[C@H]1CC/C(C)=C/CC[C@@]1(C)O[C@@H]21 [Parthenolide, parthenolide, reference compound]
[3]; Homo sapiens, HEK293, 5 h
  IC50: 530 ± 10 nM

## CC1=C(C)C(=O)OC(C(C)(O)C2(O)CCC3(O)C4CC=C5CC(OC6OC(CO)C(OC7OC(C)C(O)C(O)C7O)C(O)C6O)CC(=O)C5(C)C4CCC32C)C1 [Compound 5, (14R,17S,20R,22R)-3β-O-(α-L-rhamnopyranosyl-(1→4)-β-D-glucopyranosyl)-14,17,20-trihydroxy-1-oxo-witha-5,24-dienolide]
[1]
  IC50: > 20000 nM
[2]
  IC50: 3200 ± 400 nM
[3]; Homo sapiens, HEK293, 5 h
  IC50: > 20000 nM
